Broadly, the Kd is the free concentration of one partner at which half of the binding sites on the other are occupied at equilibrium, for simple one-to-one binding. Lower therefore signals a tighter complex.

Results on one molecule are retold here after PMC10942258 (PLOS Biology, 2024).

The target in the assay is VP35 (EBOV VP35) (Ebola virus - Mayinga, Zaire, 1976, UniProt Q05127). In words: biochemical. It is filed as binding.
Sequence of VP35 (EBOV VP35) (Q05127 whole entry, looked up): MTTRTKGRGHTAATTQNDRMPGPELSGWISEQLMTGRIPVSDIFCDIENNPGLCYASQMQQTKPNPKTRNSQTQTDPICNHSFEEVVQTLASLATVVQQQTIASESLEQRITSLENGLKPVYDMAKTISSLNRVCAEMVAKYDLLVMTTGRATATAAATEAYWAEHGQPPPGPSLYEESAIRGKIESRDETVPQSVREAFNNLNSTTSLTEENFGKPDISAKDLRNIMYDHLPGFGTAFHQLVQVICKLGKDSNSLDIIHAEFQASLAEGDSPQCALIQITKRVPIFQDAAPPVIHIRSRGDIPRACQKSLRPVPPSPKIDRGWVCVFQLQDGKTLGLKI

`Cc1oc(C)c(S(N)(=O)=O)c1C(=O)O` [SFC, 2,5-Dimethyl-4-sulfamoyl furan-3-carboxylic acid] yielded an equilibrium dissociation constant (Kd) of around 375 nM.
